Experimental data reported in US12433872B2, “Treatment of Acanthamoeba or Balamuthia trophozoites and/or cysts” (GEORGIA STATE UNIVERSITY RESEARCH FOUNDATION, INC., priority 2018, dated 2025).
pIC50: −log10 of the molar value. Counter-ions that a name gives are not always drawn. Like-named read-outs stand apart in the source and are kept apart here.

Experiments:
Acanthamoeba cysts = test: 30 day cysticidal studies, species not given; assay type: cell-based; details: for cysticidal activity over 30 day period: in words; for selectivity index (SI): text b496, A549 IC50 versus 30 day MCC
Method: As cells were removed during the 5× media changes for the 30 day time point at concentrations of drugs that allowed excystation, only qualitative, microscopic analysis was performed.

[1] = system: Acanthamoeba healyi cysts; test: Encystation drug susceptibility / excystation viability assay, 30 day recovery, A. healyi cysts; assay type: cell-based; details: 720 h, minimum cysticidal concentration, no recovery up to 30 days, read-out: A. healyi 30 day MCC
Method: (§1) The trophozoites of Acanthamoeba were harvested by mechanical detachment and collected via centrifugation at 4000 rpm at 4° C. for 5 minutes. The trophozoites were washed in 10 mL of Neff's Encystment Media (NEM). NEM composition is 20 mM Tris-HCL [pH 8.8] (2.43 g/L), 100 mM KCL (7.46 g/L), 8 mM MgSO4 (962.96 mg/L), 0.4 mM CaCL2 58.81 mg/L) and 1 mM NaHCO3 (84.01 mg/L) (Neff et al. 1964). All reagents were bought from Sigma Aldrich. Centrifugation of the trophozoites was repeated to ensure any residual growth medium was removed. The pellet was resuspended in a final volume of 15 mL of NEM, cultured in 75 cm^2 corning tissue culture flasks and incubated vertically in a thermal shaker, shaken at 100 rpm at 37° C. for 72 hours to produce fully matured cysts. NEM was supplemented with 250 μg of penicillin/streptomycin. Fresh cysts were produced each time for any experimentation.
(§2) At 72 hours the cysts were harvested using a cell scraper and collected via centrifugation at 4000 rpm at 25° C. for 10 minutes. The cells were washed twice in 10 mL of HyClone™ water, Molecular Biology Grade, and centrifugation was repeated to ensure the removal of any residual NEM. The cell suspension was washed with 0.5% sodium dodecyl sulphate (SDS) to remove any remaining trophozoites and immature cysts. The fully mature cysts were further washed twice with 10 mL of HyClone™ water and 1% NEM, centrifugation was repeated to remove any residue of SDS. The concentration of mature cysts was determined using a haemocytometer and adjusted to 1×10^4 cysts/mL in NEM.
(§3) All test compounds were prepared as 5 mg/mL stock solutions in dimethylsulfoxide (DMSO). All compounds were diluted in NEM, serially diluted in 2-fold dilutions 6 or 11 times, yielding a screening concentration range of 1.56 μg/mL to 50 μg/mL or 48 ng/mL to 50 μg/mL with a final highest screening concentration of 1% DMSO.
(§4) Based on this, a strain specific test period and also a 30 day non-specific recovery time were considered. For the 30 day recovery period, the media was changed 5 times to ensure the contents of wells dis not evaporate and have an effect within the results of the assay.
(§5) 90 μL of 1×10^4 Cysts/ml and 10 μL of experimental compounds from the screening plates were produced according to the protocols above and combined into a Corning clear 96 well treated tissue culture plate. Control wells include cysts in non-drug treated, 1% DMSO, NEM (to be used for negative growth control), NEM Blank, PG blank and cysts in non-drug treated, 1% DMSO, PG (to excyst cells and to be used for positive growth control). The total well volume for all wells was 100 μL. The drug exposed plates were screened at 27° C. for 6 or 24 hours only. At the exposure time point the plates were centrifuged at 4000 rpm at 25° C. for 10 minutes and washed twice with phosphate-buffered saline (PBS) to remove any residual experimental compound.
(§6) Once the plate(s) underwent the Encystation drug susceptibility process, all wells except the negative growth control and NEM blank wells received PG growth medium. All plates were left to recover at 27° C. for the strain specific time period of 5, 9 or 11 days depending on the species of Acanthamoeba. At each of the strain specific time points the plates were removed from incubation and microscopically analysed (qualitatively) for the excystation process for the emergence of excysted viable trophozoites or residual cysts. The presence of excysted trophozoites indicated viable amoebae (non-cystistatic or cysticidal—no effect) and the absence of excystation was considered as cystistatic/cysticidal effects.

[2] = system: Acanthamoeba castellanii trophozoites; test: Activity against Acanthamoeba castellanii trophozoites; assay type: cell-based
[3] = system: Acanthamoeba culbertsoni (ATCC30171) cysts; test: Encystation drug susceptibility / excystation viability assay, 30 day recovery, A. culbertsoni cysts; assay type: cell-based; details: ATCC30171, 720 h, minimum cysticidal concentration, no recovery up to 30 days, read-out: A. culbertsoni 30 day MCC
Method: as §1, §2, §3, §4, §5, §6

A549 cells = test: Toxicity to human A549 cells; assay type: cell-based; details: human A549 cells; read-out: A549 cell IC50
[4] = system: Acanthamoeba castellanii (ATCC50370) cysts; test: Encystation drug susceptibility / excystation viability assay, 30 day recovery, A. castellanii cysts; assay type: cell-based; details: ATCC50370, 720 h, minimum cysticidal concentration, no recovery up to 30 days, read-out: A. castellanii 30 day MCC
Method: as §1, §2, §3, §4, §5, §6

[5] = system: Balamuthia mandrillaris trophozoites; test: Activity against Balamuthia mandrillaris trophozoites; assay type: cell-based; details: Balamuthia mandrillaris; trophozoites, n = 2; read-out: Balamuthia mandrillaris IC50
Method: Balamuthia mandrillaris trophozoites were thawed and grown in 10 ml of BM-3 medium. […] After autoclaving, complete BM-3 media was produced by the addition of 10% fetal bovine serum and 125 μg of penicillin/streptomycin antibiotics. The table describes all of the compounds and the activity against Balamuthia trophozoites compared to the activity for select Acanthamoeba trophozoites shown in Table 5.

B. mandrillaris = details: previous in vitro testing, cited from earlier work; for effect against B. mandrillaris: in words
[6] = read-out: A. cactellanii Trophozoite IC50
[7] = trophozoites, n = 2, Table 6, read-out: Acanthamoeba castellanii IC50

Row | SMILES | cysticidal activity over 30 day period (Acanthamoeba cysts) | selectivity index (SI) (Acanthamoeba cysts) | MCC [1] | pIC50 [2, 6] | MCC [3] | pIC50 (A549 cells) | MCC [4] | pIC50 [2, 7] | pIC50 [5] | effect against B. mandrillaris (B. mandrillaris) | concentration at which most effective drug against B. mandrillaris (B. mandrillaris; same value in μM) | concentration at which most effective drug against B. mandrillaris (B. mandrillaris)
1 | CCCCC(CC)CNC(=N)NC(=N)NCCCCCCNC(=N)NC(=N)NCC(CC)CCCC (stereo not shown) [Alexidine HCL, alexidine, reference compound] | shows cysticidal activity | 0.29 | 5.37 µM | 5.77 | 5.37 µM | 5.80 | 5.37 µM | – | – | – | – | –
2 | N=C(NCCCCCCNC(=N)NC(=N)Nc1ccc(Cl)cc1)NC(=N)Nc1ccc(Cl)cc1 [Chlorhexidine, chlorhexidine, reference compound] | little cysticidal activity | 0.03 | 100 µM | 6.00 | 100 µM | 5.51 | 100 µM | – | – | – | – | –
3 | COc1cc(Oc2ccc(-c3nc4ccc(C(=N)NC(C)C)cc4[nH]3)c(Cl)c2)ccc1-c1nc2ccc(C(=N)NC(C)C)cc2[nH]1 [Compound S] | – | – | 1.87 µM | – | 0.93 µM | 5.53 | 2.81 µM | 5.55 | 7.22 | – | – | –
4 | CCC(CC)NC(=N)c1ccc2nc(-c3ccc(Oc4ccc(-c5nc6ccc(C(=N)NC(CC)CC)cc6[nH]5)cc4)cc3)[nH]c2c1 [Compound T] | – | – | 7.61 µM | – | 5.71 µM | 4.50 | 11.4 µM | 5.95 | 6.85 | – | – | –
5 | COc1cc(-c2nc3ccc(C(=N)NC(C)C)cc3[nH]2)ccc1Oc1ccc(-c2nc3ccc(C(=N)NC(C)C)cc3[nH]2)cc1F [J, 2-(3-Fluoro-4-(4-(6-(N-isopropylcarbamimidoyl)-1H-benzo[d]imidazol-2-yl)-2-methoxyphenoxy)phenyl)-N-isopropyl-1H-benzo[d]imidazole-6-carboximidamide] | – | – | 9.34 µM | – | 7.47 µM | 5.39 | 11.2 µM | 6.02 | 7.10 | – | – | –
6 | COc1cc(Oc2ccc(-c3nc4ccc(C(=N)NC(C)C)cc4[nH]3)cc2F)ccc1-c1nc2ccc(C(=N)NC(C)C)cc2[nH]1 [K, 2-(3-Fluoro-4-(4-(6-(N-isopropylcarbamimidoyl)-1H-benzo[d]imidazol-2-yl)-3-methoxyphenoxy)phenyl)-N-isopropyl-1H-benzo[d]imidazole-6-carboximidamide] | – | – | 7.72 µM | – | 7.89 µM | 5.39 | 9.65 µM | 5.96 | 6.85 | – | – | –
7 | CC(C)NC(=N)c1ccc2nc(-c3ccc(Oc4ccc(-c5nc6ccc(C(=N)NC(C)C)cc6[nH]5)c(Cl)c4)cc3Cl)[nH]c2c1 [L, 2-2′-(Oxybis(2-chloro-4,1-phenylene))bis(N-isopropyl-3H-benzo[d]imidazole-6-carboximidamide)] | – | – | 2.88 µM | – | 2.88 µM | 5.38 | 2.88 µM | 6.41 | 7.10 | – | – | –
8 | CC(C)NC(=N)c1ccc2nc(-c3ccc(Oc4ccc(-c5nc6ccc(C(=N)NC(C)C)cc6[nH]5)c(Br)c4)cc3)[nH]c2c1 [M, 2-(2-Bromo-4-(4-(6-(N-isopropylcarbamimidoyl)-1H-benzo[d]imidazol-2-yl)phenoxy)phenyl)-N-isopropyl-1H-benzo[d]imidazole-6-carboximidamide] | – | – | 3.8 µM | – | 5.7 µM | 5.41 | 2.85 µM | 6.41 | 7.10 | – | – | –
9 | COc1cc(Oc2ccc(-c3nc4ccc(C(=N)NC(C)C)cc4[nH]3)c(Br)c2)ccc1-c1nc2ccc(C(=N)NC(C)C)cc2[nH]1 [N, 2-(2-Bromo-4-(4-(6-(N-isopropylcarbamimidoyl)-1H-benzo[d]imidazol-2-yl)-3-methoxyphenoxy)phenyl)-N-isopropyl-1H-benzo[d]imidazole-6-carboximidamide] | – | – | 5.52 µM | – | 3.68 µM | 5.41 | 9.2 µM | 6.25 | 6.92 | – | – | –
10 | CC(C)NC(=N)c1ccc2nc(-c3ccc(Oc4ccc(-c5nc6ccc(C(=N)NC(C)C)cc6[nH]5)cc4Br)cc3)[nH]c2c1 [O, 2-(3-Bromo-4-(4-(6-(N-isopropylcarbamimidoyl)-1H-benzo[d]imidazol-2-yl)phenoxy)phenyl)-N-isopropyl-1H-benzo[d]imidazole-6-carboximidamide] | – | – | 11.4 µM | – | 11.4 µM | 5.43 | 11.4 µM | 6.17 | 6.89 | – | – | –
11 | CC(C)NC(=N)c1ccc2nc(-c3ccc(Oc4ccc(-c5nc6ccc(C(=N)NC(C)C)cc6[nH]5)cc4Cl)c(Cl)c3)[nH]c2c1 [P, 2,2′-(Oxybis(3-chloro-4,1-phenylene))bis(N-isopropyl-1H-benzo[d]imidazole-6-carboximidamide)] | – | – | 9.99 µM | – | 20 µM | 5.31 | 18 µM | 6.09 | 6.74 | – | – | –
12 | CC(C)NC(=N)c1ccc2nc(-c3ccc(Oc4ccc(-c5nc6ccc(C(=N)NC(C)C)cc6[nH]5)c(Br)c4)c(F)c3)[nH]c2c1 [Q, 2-(2-Bromo-4-(2-fluoro-4-(6-(N-isopropylcarbamimidoyl)-1H-benzo[d]imidazol-2-yl)phenoxy)phenyl)-N-isopropyl-1H-benzo[d]imidazole-6-carboximidamide] | – | – | 3.6 µM | – | 2.7 µM | 5.45 | 3.6 µM | 6.39 | 7.00 | – | – | –
13 | C[C@@H]1[C@H](O)[C@@H](C)/C=C/C=C/C=C/C=C/C=C/C=C/C=C/[C@H](O[C@@H]2O[C@H](C)[C@@H](O)[C@H](N)[C@@H]2O)C[C@@H]2O[C@](O)(C[C@@H](O)C[C@@H](O)[C@H](O)CC[C@@H](O)C[C@@H](O)CC(=O)O[C@H]1C)C[C@H](O)[C@H]2C(=O)O [amphotericin B] | – | – | – | – | – | – | – | – | – | marginal effects | – | –
14 | CC[C@H]1OC(=O)[C@H](C)[C@@H](O[C@H]2C[C@@](C)(OC)[C@@H](O)[C@H](C)O2)[C@H](C)[C@@H](O[C@@H]2O[C@H](C)C[C@H](N(C)C)[C@H]2O)[C@](C)(O)C[C@@H](C)CN(C)[C@H](C)[C@@H](O)[C@]1(C)O [azithromycin] | – | – | – | – | – | – | – | – | – | no effect | – | –
15 | CC[C@H]1OC(=O)[C@H](C)[C@@H](O[C@H]2C[C@@](C)(OC)[C@@H](O)[C@H](C)O2)[C@H](C)[C@@H](O[C@@H]2O[C@H](C)C[C@H](N(C)C)[C@H]2O)[C@](C)(OC)C[C@@H](C)C(=O)[C@H](C)[C@@H](O)[C@]1(C)O [clarithromycin] | – | – | – | – | – | – | – | – | – | no effect | – | –
16 | N=C(N)c1ccc(OCCCCCOc2ccc(C(=N)N)cc2)cc1 [pentamidine] | – | – | – | – | – | – | – | – | – | – | 29.38 µM | 10 µg/mL
